Tests used:
CDK5/p35 human = CDK5/p35 human (Homo sapiens, UniProt Q00535); assay: Kinase profiling C3.6 CDK5/p35 human; type: biochemical; settings: CDK5/p35, test concentration of 10^−6 M
Method in brief: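 Radiometric filter-binding assay: human CDK5/p35 (5-10 mU) with 0.1 mg/ml histone H1 substrate in 8 mM MOPS pH 7.0, 0.2 mM EDTA, 10 mM Mg acetate and [γ-33P]ATP. Incubated 40 min at room temperature, stopped with phosphoric acid. Substrate 33P incorporation counted on P30 filtermat by scintillation.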

GSK-3β = GSK-3β (Homo sapiens, UniProt P49841); assay: GSK-3 kinase assay (C1), GSK-3β; type: biochemical; settings: 1 μM ATP; for IC50: read-out: C1 Score β
Sequence of GSK-3β (P49841 whole entry, species assumed): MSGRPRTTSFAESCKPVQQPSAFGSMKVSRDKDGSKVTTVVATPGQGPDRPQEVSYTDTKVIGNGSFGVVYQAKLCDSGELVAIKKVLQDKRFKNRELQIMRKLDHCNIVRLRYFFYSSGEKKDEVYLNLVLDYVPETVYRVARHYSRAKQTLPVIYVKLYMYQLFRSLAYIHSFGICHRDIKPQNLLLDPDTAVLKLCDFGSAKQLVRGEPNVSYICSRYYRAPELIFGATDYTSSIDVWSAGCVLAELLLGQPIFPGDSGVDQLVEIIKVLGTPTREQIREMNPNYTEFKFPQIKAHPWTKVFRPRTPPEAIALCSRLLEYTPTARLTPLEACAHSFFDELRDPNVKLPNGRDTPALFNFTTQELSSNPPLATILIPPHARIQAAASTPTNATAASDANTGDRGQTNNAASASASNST
Method in brief: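 Radiometric SPA at room temperature in 25 mM Tris pH 7.4 with 10 mM MgCl2, 1 mM DTT, 5.7 ng/μl GSK-3β or 0.25 ng/μl GSK-3α, 5 μM biotinylated CREB peptide and 1 μM ATP plus ^33P-ATP. Stopped after 1 h; IC50 from dose-response versus no-compound control, reported as pIC50 score bands.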

Chang cells = assay: GSK-3 cellular assay (C2): 14C-D-glucose incorporation into glycogen; type: cell-based; settings: increase in D-glucose incorporation into glycogen, test concentration of 10^−6 M
Method: Test compounds were tested for their ability to increase the incorporation of ^14C-D-glucose into glycogen in living cells. To do this, Chang cells (360,000 cells/well) were cultured in 0.5 ml of MEM Rega 3 medium supplemented with 10% fetal calf serum, 1% L-glutamine and 2% sodium carbonate. After 3 days, cells were washed with 0.5 ml of phosphate-buffered saline and overlayed with 1 ml of serum- and glucose-free DMEM medium. Then, 2 μl of compound in DMSO and 50 μl substrate (3 mM glucose and 0.5 μCi ^14C-D-glucose were added and the cultures were incubated for 90 min. Cells were then extracted with 0.5 ml of 20% KOH for 60 min at 37° C. and the cell lysates were transferred to 10 ml tubes containing 300 μl of 1 mg/ml glycogen as […]. Following the addition of 2 ml ethanol, total glycogen was precipitated overnight at −20° C. and the precipitates were recovered by centrifugation. Precipitates were then resuspended in 1 ml of water and transferred to scintillation counter vials. and the amount of ^14C-D-glucose incorporation into glycogen was measured by scintillation counting. Scores for the compounds according to the invention, were obtained at a test concentration of 10^−6 M. Score 1=10-30% increase, Score 2=30-60% increase, Score 3=60-80% increase and Score 4=>80% increase in D-glucose incorporation.

Aurora-A (h) = target: T1, Aurora-A (h) (Homo sapiens, UniProt O14965); assay: Kinase profiling C3.1 Aurora-A human; type: biochemical; settings: test concentration of 10^−6 M
T1 sequence (O14965 1-403): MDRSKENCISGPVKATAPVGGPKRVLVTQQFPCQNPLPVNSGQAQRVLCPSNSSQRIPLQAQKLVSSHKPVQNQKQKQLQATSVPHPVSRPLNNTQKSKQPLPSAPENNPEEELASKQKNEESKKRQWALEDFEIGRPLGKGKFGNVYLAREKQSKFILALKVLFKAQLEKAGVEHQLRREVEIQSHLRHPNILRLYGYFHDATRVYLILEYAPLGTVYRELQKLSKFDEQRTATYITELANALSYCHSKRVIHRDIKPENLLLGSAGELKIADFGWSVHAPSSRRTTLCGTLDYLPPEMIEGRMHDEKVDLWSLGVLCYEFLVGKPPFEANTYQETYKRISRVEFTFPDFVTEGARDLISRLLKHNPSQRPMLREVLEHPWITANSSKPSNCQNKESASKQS
Method: (§1) The in vitro inhibition of a panel of kinases was assessed using either the glass-fiber filter technology as described by Davies, S. P. et al., Biochem J. (2000), 351; p. 95-105. In the glass-fiber filter technology the activity of the kinase of interest is measured using an appropriate substrate that is incubated with the aforementioned kinase protein in the presence of (^33P) radiolabeled ATP. (^33P) Phosporylation of the substrate is subsequently measured as radioactivity bound on a glassfiber-filter.
(§2) All kinases are pre-diluted to a 10× working concentration prior to addition into the assay. The composition of the dilution buffer for each kinase is detailed below.
(§3) All substrates are dissolved and diluted to working stocks in de-ionised water, apart from histone H1 that is stored in 10× working stock in 20 mM MOPS pH 7.4.
In a final reaction volume of 25 μl, Aurora-A (h) (5-10 mU) is incubated with 8 mM MOPS pH 7.0, 0.2 mM EDTA, 200 μM LRRASLG (Kemptide), 10 mM MgAcetate and [γ-^33P-ATP] (specific activity approx. 500 cpm/pmol, concentration as required). The reaction is initiated by the addition of the MgATP mix. After incubation for 40 minutes at room temperature, the reaction is stopped by the addition of 5 μl of a 3% phosphoric acid solution. 10 μl of the reaction is then spotted onto a P30 filtermat and washed three times for 5 minutes in 50 mM phosphoric acid and once in methanol prior to drying and scintillation counting.

cSRC (h) = cSRC (h) (Homo sapiens, UniProt P12931); assay: Kinase profiling C3.9 cSRC human; type: biochemical; settings: test concentration of 10^−6 M
Sequence of cSRC (h) (P12931 whole entry): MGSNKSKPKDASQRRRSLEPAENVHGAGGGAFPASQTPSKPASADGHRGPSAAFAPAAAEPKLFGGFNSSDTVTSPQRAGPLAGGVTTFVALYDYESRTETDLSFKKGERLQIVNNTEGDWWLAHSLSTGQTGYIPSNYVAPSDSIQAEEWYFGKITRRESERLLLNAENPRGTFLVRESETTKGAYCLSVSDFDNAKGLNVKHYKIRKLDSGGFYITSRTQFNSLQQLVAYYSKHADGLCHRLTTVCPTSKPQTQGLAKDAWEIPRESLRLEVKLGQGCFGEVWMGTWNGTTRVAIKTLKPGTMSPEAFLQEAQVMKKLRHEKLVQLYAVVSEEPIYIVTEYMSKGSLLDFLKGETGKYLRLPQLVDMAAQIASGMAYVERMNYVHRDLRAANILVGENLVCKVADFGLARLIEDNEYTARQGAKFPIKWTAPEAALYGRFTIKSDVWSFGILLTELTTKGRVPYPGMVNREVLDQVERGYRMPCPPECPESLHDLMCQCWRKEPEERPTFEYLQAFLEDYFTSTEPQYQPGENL
Method: as §1, §2, §3
In a final reaction volume of 25 μl, cSRC (h) (5-10 mU) is incubated with 8 mM MOPS pH 7.0, 0.2 mM EDTA, 250 μM KVEKIGEGTYGVVYK (Cdc2 peptide), 10 mM MgAcetate and [γ-^33P-ATP] (specific activity approx. 500 cpm/pmol, concentration as required). The reaction is initiated by the addition of the MgATP mix. After incubation for 40 minutes at room temperature, the reaction is stopped by the addition of 5 μl of a 3% phosphoric acid solution.
10 μl of the reaction is then spotted onto a P30 filtermat and washed three times for 5 minutes in 75 mM phosphoric acid and once in methanol prior to drying and scintillation counting.

Sequence of CDK5/p35 human (Q00535 whole entry): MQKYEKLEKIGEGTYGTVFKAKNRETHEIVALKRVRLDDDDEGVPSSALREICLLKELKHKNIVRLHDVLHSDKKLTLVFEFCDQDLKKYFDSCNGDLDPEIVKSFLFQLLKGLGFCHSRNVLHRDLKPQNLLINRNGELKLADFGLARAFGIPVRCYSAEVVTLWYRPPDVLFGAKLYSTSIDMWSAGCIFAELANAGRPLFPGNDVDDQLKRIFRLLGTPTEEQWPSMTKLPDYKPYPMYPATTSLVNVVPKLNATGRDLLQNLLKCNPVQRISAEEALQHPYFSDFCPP
Sequence of CDK5/p35 human (Q15078 whole entry partner): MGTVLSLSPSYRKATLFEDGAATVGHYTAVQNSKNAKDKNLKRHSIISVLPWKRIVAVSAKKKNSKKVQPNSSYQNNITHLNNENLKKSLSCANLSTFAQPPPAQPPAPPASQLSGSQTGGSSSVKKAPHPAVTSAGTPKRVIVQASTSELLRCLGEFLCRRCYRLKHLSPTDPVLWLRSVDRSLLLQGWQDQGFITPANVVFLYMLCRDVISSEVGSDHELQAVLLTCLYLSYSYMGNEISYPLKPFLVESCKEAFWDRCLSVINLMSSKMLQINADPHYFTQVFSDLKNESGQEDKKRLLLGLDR

SMILES | C3.6 score (CDK5/p35 human) | IC50 (GSK-3β) | C2 Score (Chang cells) | C3.1 score (Aurora-A (h)) | C3.9 score (cSRC (h)) | C1 Score β (GSK-3β)
O=C1CN2CCN(CC2)Cc2cccc(c2)Nc2ncnc(n2)-c2ccnc(c2)CCCN1 [Compound 36] | 3 (Score 3 = 60-80% inhibition) | < 10 nM | 4 (Score 4=>80% increase in D-glucose incorporation) | 1 (Score 1 = 10-30% inhibition) | 1 (Score 1 = 10-30% inhibition) | 
CN1CC(=O)NCCCc2cc(ccn2)-c2ncnc(n2)Nc2cccc(c2)C1 [Compound 8] | 3 (Score 3 = 60-80% inhibition) |  | 4 (Score 4=>80% increase in D-glucose incorporation) |  |  | 4 (Score 4=pIC50 value>8)
CCN1CC(=O)NCCCc2cc(ccn2)-c2ncnc(n2)Nc2cc(Cl)cc(c2)C1 [Compound 34] | 4 (Score 4 = >80% inhibition) | < 10 nM | 4 (Score 4=>80% increase in D-glucose incorporation) |  |  | 
CN1CC(=O)NCCCc2cc(ccn2)-c2ncnc(n2)Nc2cc(Cl)cc(c2)C1 [Compound 33] | 4 (Score 4 = >80% inhibition) | < 10 nM | 4 (Score 4=>80% increase in D-glucose incorporation) |  |  | 
CN1CC(=O)NCC#Cc2cc(ccn2)-c2ncnc(n2)Nc2cccc(c2)C1 [Compound 1] | 4 (Score 4 = >80% inhibition) | < 10 nM | 3 (Score 3=60-80% increase) | 1 (Score 1 = 10-30% inhibition) | 3 (Score 3 = 60-80% inhibition) | 
O=C1NCCCc2cc(ccn2)-c2ncnc(n2)Nc2cccc(c2)CN2C[C@H](O)C[C@@H]12 [Compound 14] | 1 (Score 1 = 10-30% inhibition) | 10 to 100 nM |  | 2 (Score 2 = 30-60% inhibition) | 2 (Score 2 = 30-60% inhibition) | 
CN1CCC(=O)NCCCc2cc(ccn2)-c2ncnc(n2)Nc2cccc(c2)C1 [Compound 3] | 3 (Score 3 = 60-80% inhibition) | 10 to 100 nM |  | 1 (Score 1 = 10-30% inhibition) | 2 (Score 2 = 30-60% inhibition) | 
O=C1NCCCc2cc(ccn2)-c2ncnc(n2)Nc2cccc(c2)CN2CCCC12 (stereo not shown) [Compound 12] | 2 (Score 2 = 30-60% inhibition) | 100 to 1000 nM |  | 1 (Score 1 = 10-30% inhibition) | 2 (Score 2 = 30-60% inhibition) | 
O=C1NCCCc2cncc(c2)-c2ncnc(n2)Nc2cccc(c2)CN[C@H]1CO [Compound 81] | 3 (Score 3 = 60-80% inhibition) |  | 4 (Score 4=>80% increase in D-glucose incorporation) | 1 (Score 1 = 10-30% inhibition) | 1 (Score 1 = 10-30% inhibition) | 
CN1CCN(CCN2CCC(=O)NCCCc3cc(ccn3)-c3ncnc(n3)Nc3cccc(c3)C2)CC1 [Compound 11] | 1 (Score 1 = 10-30% inhibition) | 100 to 1000 nM |  | 1 (Score 1 = 10-30% inhibition) | 1 (Score 1 = 10-30% inhibition) | 
CCN1CCCc2cc(ccn2)-c2ncnc(n2)Nc2cccc(c2)CCNC(=O)C1 [Compound 30] | 4 (Score 4 = >80% inhibition) | < 10 nM | 4 (Score 4=>80% increase in D-glucose incorporation) |  |  | 
CCN1CC(=O)NCCCc2cccc(c2)-c2ncnc(n2)Nc2cccc(c2)C1 [Compound 54] | 3 (Score 3 = 60-80% inhibition) |  | 4 (Score 4=>80% increase in D-glucose incorporation) |  | 1 (Score 1 = 10-30% inhibition) | 
O=C1NCCCc2cccc(c2)-c2ncnc(n2)Nc2cccc(c2)CN[C@H]1CO [Compound 46] | 4 (Score 4 = >80% inhibition) |  | 4 (Score 4=>80% increase in D-glucose incorporation) |  |  | 
CN1CCCC(=O)NCCCc2cc(ccn2)-c2ncnc(n2)Nc2cccc(c2)C1 [Compound 13] | 1 (Score 1 = 10-30% inhibition) | 10 to 100 nM |  | 2 (Score 2 = 30-60% inhibition) | 2 (Score 2 = 30-60% inhibition) | 
O=C1NCCCc2cc(ccn2)-c2ncnc(n2)Nc2cccc(c2)CN2CCCC1C2 (stereo not shown) [Compound 15] | 1 (Score 1 = 10-30% inhibition) | 10 to 100 nM |  | 1 (Score 1 = 10-30% inhibition) | 1 (Score 1 = 10-30% inhibition) | 
O=C1NCCCc2cc(ccc2F)-c2ncnc(n2)Nc2cc(Cl)cc(c2)CN[C@H]1CO [Compound 71] | 4 (Score 4 = >80% inhibition) |  | 4 (Score 4=>80% increase in D-glucose incorporation) | 2 (Score 2 = 30-60% inhibition) | 4 (Score 4 = >80% inhibition) | 
O=C1CN2CCN(CC2)Cc2cc(Cl)cc(c2)Nc2ncnc(n2)-c2ccnc(c2)CCCN1 [Compound 41] | 3 (Score 3 = 60-80% inhibition) | < 10 nM | 4 (Score 4=>80% increase in D-glucose incorporation) |  |  | 
O=C1CN2CCN(CC2)Cc2cccc(c2)Nc2ncnc(n2)-c2ccnc(c2)CCCN1 [Compound 9] | 2 (Score 2 = 30-60% inhibition) |  | 4 (Score 4=>80% increase in D-glucose incorporation) |  |  | 4 (Score 4=pIC50 value>8)
O=C1CN2CCN(CC2)Cc2cccc(c2)Nc2ncnc(n2)-c2ccc(F)c(c2)CCCN1 [Compound 66] | 3 (Score 3 = 60-80% inhibition) |  | 4 (Score 4=>80% increase in D-glucose incorporation) |  |  | 
